From patent US7122657B2, “UDP-glucose aglycon-glucosytransferase” (priority 1999, dated 2006)

Key:
[1] = tested on: glucosyltransferase activity of desalted crude etiolated Sorghum seedling extract; test: Substrate specificity of desalted crude etiolated Sorghum seedling extract (TLC, 14C-UDP-glucose); assay type: biochemical, Sorghum bicolor; parameters: key: ▪: indicate that a radiolabelled product was visualised after incubation with the respective aglycone substrate; □: indicate that no radiolablled products could be detected under the experimental conditions employed; details: aglycone substrate
Description: (§1) Generally a 20 μl reaction mixture including • 100 mM Tris HCl (pH 7.9), • 1–5 μM ^14C-UDP-glucose (11.0 GBq mmol^−1, Amersham LIFE SCIENCE), • 0–300 μM UDP-glucose, • 0–20 mM p-hydroxymandelonitrile (dissolved in water, freshly prepared), • 25 mM γ-gluconolactone, • 0–1 mg BSA and • 0.5–10 μl of protein preparation, is incubated at 30° C. between 2 minutes and 2 hours. Thereafter the reaction is terminated by the addition of 1/10 of the reaction volume of 10% acetic acid. The same assay conditions are used to determine the glucosylation of mandelonitrile, benzoic acid, benzylalcohol, geraniol and a number of other aglycons.
(§2) For TLC analysis the reaction mixture is applied to Silica Gel 60 F254 plates (Merck), dried and eluted in a solvent containing ethyl acetate:acetone:dichloromethane:methanol:[…] (40:30:12:10:8, v/v). Plates are dried for one hour at room temperature and exposed to storage phosphorlmaging plates (Molecular Dynamics) prior to scanning on a Storm 860 Phosphorimager (Molecular Dynamics).
(§3) Substrate Specificity of Recombinant sbHMNGT Compared to Desalted Crude Etiolated Sorghum Seedling Extract
(§4) Glucosyltransterase activity was determined by TLC using ^14C-UDP-glucose. Filled boxes in Table 1 below (▪) indicate that a radiolabelled product was visualised after incubation with the respective aglycone substrate. Empty boxes (□) indicate that no radiolablled products could be detected under the experimental conditions employed. Figures in brackets indicate the relative Vmax for each aglycon with calculated standard deviations.

[2] = target: T1, recombinant sbHMNGT (UDP-glucose:p-hydroxymandelonitrile-glucosyltransferase) (Sorghum bicolor, UniProt Q9SBL1); test: Substrate specificity of recombinant sbHMNGT (TLC, 14C-UDP-glucose); assay type: biochemical; parameters: key to ACTIVITY Recombinant sbHMNGT (radiolabelled glucoside product): ▪: indicate that a radiolabelled product was visualised after incubation with the respective aglycone substrate; □: indicate that no radiolablled products could be detected under the experimental conditions employed; details: for ACTIVITY Recombinant sbHMNGT (radiolabelled glucoside product): 1.25 mM aglycone, 100 ng recombinant sbHMNGT, 20 min at 30° C., TLC
T1 construct: are used to amplify a 1500 bp full-length sbHMNGT insert by PCR; made in house; host or cells: E. coli JM109, vector pSP19g10L
T1 sequence (Q9SBL1 whole entry): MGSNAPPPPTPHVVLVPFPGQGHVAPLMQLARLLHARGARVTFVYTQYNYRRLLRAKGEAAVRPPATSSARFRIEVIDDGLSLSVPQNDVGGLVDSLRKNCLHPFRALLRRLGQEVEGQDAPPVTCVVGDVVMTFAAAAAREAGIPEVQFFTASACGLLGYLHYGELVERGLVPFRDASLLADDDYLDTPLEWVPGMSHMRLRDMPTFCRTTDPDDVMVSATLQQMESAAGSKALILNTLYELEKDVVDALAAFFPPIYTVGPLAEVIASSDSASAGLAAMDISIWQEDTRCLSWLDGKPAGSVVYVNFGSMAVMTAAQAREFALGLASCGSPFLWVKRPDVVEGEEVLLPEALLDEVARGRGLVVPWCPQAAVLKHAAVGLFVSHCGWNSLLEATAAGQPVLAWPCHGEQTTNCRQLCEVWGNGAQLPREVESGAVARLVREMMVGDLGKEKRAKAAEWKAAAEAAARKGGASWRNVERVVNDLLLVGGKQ
Description: as §1
To determine the substrate specificity of recombinant sbHMNGT incubation lasts for 20 min at 30° C. and the general protocol above is adapted to include • 1.25 mM aglycone (dissolved in ethanol except for flavonoids which are dissolved in ethylene glycol monoether), • 1.25 μM ^14C-UDP-glucose, • 12.5 μM UDP-glucose, • 100 ng recombinant sbHMNGT, and • 4 μg BSA.
as §2, §3, §4

sbHMNGT [3] = target: T2, sbHMNGT (Sorghum bicolor, UniProt Q9SBL1); test: Quantitative determination of the activity of recombinant sbHMNGT (Vmax); assay type: biochemical; parameters: are used to amplify a 1500 bp full-length sbHMNGT insert by PCR; made in house; host or cells: E. coli JM109, vector pSP19g10L; details: for relative Vmax with calculated standard deviations: relative to p-hydroxymandelonitrile, 1, 5 or 10 mM aglycone, 4 minutes at 30° C.
T2 sequence (Q9SBL1 whole entry): as above
Description: as §1
Quantitative determination of the activity of recombinant sbHMNGT is carried out using 4 minutes incubation at 30° C. Analyses are carried out as for the determination of substrate specificity except that the reaction mixtures are composed as folows: • 1, 5 or 10 mM aglycone, • 5 μM ^14C-UDP-glucose, • 0.2 mM UDP-glucose, • 200 ng recombinant sbHMNGT, and • 24 μg BSA.
as §4

sbHMNGT [4] = target: T2, sbHMNGT; test: sbHMNGT activity assay during purification (LSC); assay type: biochemical; parameters: from tissue; host or cells: etiolated Sorghum bicolor seedling shoots; ammonium sulphate, Q-sepharose and Reactive Yellow 3 fractions; details: native sbHMNGT
Description: as §1
For analysis by liquid scintillation counting (LSC) reaction mixtures are extracted with 400 μl of ethyl acetate to separate glucosides from unincorporated ^14C-UDP-glucose. 2 ml of Ecoscint A (National Diagnostics, New Jersey, USA) are added to 250 μl of each ethyl acetate extract and analyzed using a Win Spectral 1414 (Wallac) liquid scintillation counter. Mandelonitrile is used as substrate to assay fractions generated by liquid chromatography.
Except where indicated all steps are carried out at 4° C. […] Furthermore, the absence of a hydroxyl group at the para-position of the benzene ring rules out the possibility of p-glucosyloxymandelonitrile synthesis, which would be indistinguishable from dhurrin using the LSC assay.

| SMILES | ACTIVITY Crude Sorghum extract (radiolabelled glucoside product) [1] | ACTIVITY Recombinant sbHMNGT (radiolabelled glucoside product) [2] | ability of sbHMNGT to glucosylate the aglycon [2] | rate of glucosylation compared with the cyanohydrins (sbHMNGT [3]) | relative Vmax with calculated standard deviations (sbHMNGT [3]; recombinant sbHMNGT) | substrate quality compared with p-hydroxymandelonitrile (sbHMNGT [4]) | Vmax (sbHMNGT [3]; recombinant sbHMNGT) |
| --- | --- | --- | --- | --- | --- | --- | --- |
| CCCCCCO [1-hexanol] | ▪ | ▪ |  |  |  |  |  |
| O=C(O)C=Cc1ccccc1O [2-hydroxy cinnamic acid] | ▪ | □ |  |  |  |  |  |
| COc1cccc(CO)c1O [2-hydroxy-3-methoxybenzlalcohol] | ▪ | ▪ | glucosylate |  |  |  |  |
| CCCC(C)=CCO [3-methyl-2-hexen-1-ol] | ▪ | ▪ |  |  |  |  |  |
| CCC=C(C)CCO [3-methyl-3-hexen-1-ol] | ▪ | ▪ |  |  |  |  |  |
| CC(C)(O)C#N [acetone cyanohydrin] | □ | □ |  |  |  |  |  |
| O=c1cc(-c2ccc(O)cc2)oc2cc(O)cc(O)c12 [apigenin] | ▪ | □ |  |  |  |  |  |
| O=C(O)c1ccccc1 [benzoic acid] | ▪ | ▪ | glucosylate | lower than those observed for the cyanohydrins | (4.2 ± 0.8%) |  |  |
| OCc1ccccc1 [benzyl alcohol] | ▪ | ▪ | glucosylate | lower than those observed for the cyanohydrins | (13.1 ± 2.1%) |  |  |
| COc1ccc(-c2coc3cc(O)cc(O)c3c2=O)cc1 [biochanin A] | ▪ | □ |  |  |  |  |  |
| O=C(O)/C=C/c1ccc(O)c(O)c1 [caffeic acid] | ▪ | □ |  |  |  |  |  |
| CC/C=C\CCO [cis-3-hexen-1-ol] | ▪ | ▪ |  |  |  |  |  |
| O=C(O)c1cc(O)ccc1O [gentisic acid] | □ | □ |  |  |  |  |  |
| CC(C)=CCC/C(C)=C/CO [geraniol] | ▪ | ▪ | glucosylate | lower than those observed for the cyanohydrins | (11.0 ± 0.5%) |  |  |
| Oc1ccc(O)cc1 [hydroquinone] | ▪ | □ |  |  |  |  |  |
| N#CC(O)c1ccccc1 (centres unmarked) [mandelonitrile] | ▪ | ▪ |  |  | (77.8 ± 8.6%) | equally good substrate |  |

| SMILES | ACTIVITY Crude Sorghum extract (radiolabelled glucoside product) [1] | ACTIVITY Recombinant sbHMNGT (radiolabelled glucoside product) [2] | ability of sbHMNGT to glucosylate the aglycon [2] | rate of glucosylation compared with the cyanohydrins (sbHMNGT [3]) | relative Vmax with calculated standard deviations (sbHMNGT [3]; recombinant sbHMNGT) | substrate quality compared with p-hydroxymandelonitrile (sbHMNGT [4]) | Vmax (sbHMNGT [3]; recombinant sbHMNGT) |
| --- | --- | --- | --- | --- | --- | --- | --- |
| O=C1C[C@@H](c2ccc(O)cc2)Oc2cc(O)cc(O)c21 [naringenin] | ▪ | □ |  |  |  |  |  |
| CC(C)=CCC/C(C)=C\CO [nerol] | ▪ | ▪ | glucosylate |  |  |  |  |
| CC(C)=CCCC(C)CCO (centres unmarked) [p-citronellol] | ▪ | ▪ | glucosylate |  |  |  |  |
| O=Cc1ccc(O)cc1 [p-hydroxybenzaldehyde] | ▪ | □ |  |  |  |  |  |
| O=C(O)c1ccc(O)cc1 [p-hydroxybenzoic acid] | ▪ | □ |  |  |  |  |  |
| OCc1ccc(O)cc1 [p-hydroxybenzyl alcohol] | ▪ | ▪ |  |  |  |  |  |
| O=C(O)C(O)c1ccc(O)cc1 (centres unmarked) [p-hydroxymandelic acid] | ▪ | □ |  |  |  |  |  |
| N#CC(O)c1ccc(O)cc1 (centres unmarked) [p-hydroxymandelonitrile] | ▪ | ▪ |  |  | (100 ± 7.2%) |  | 1500 mol of product/mol of sbHMNGT/sec |
| O=c1c(O)c(-c2ccc(O)c(O)c2)oc2cc(O)cc(O)c12 [quercetin] | ▪ | □ |  |  |  |  |  |
| Oc1ccc(C=Cc2cc(O)cc(O)c2)cc1 [resveratrol] | ▪ | □ |  |  |  |  |  |
| O=C(O)c1ccccc1O [salicylic acid] | ▪ | □ |  |  |  |  |  |
| C[C@H]1CC[C@]2(NC1)O[C@H]1C[C@H]3[C@@H]4CC[C@H]5C[C@@H](O)CC[C@]5(C)[C@H]4CC[C@]3(C)[C@H]1[C@@H]2C [tomatidine] | ▪ | □ |  |  |  |  |  |
| CCC/C=C/CO [trans-2-hexen-1-ol] | ▪ | ▪ |  |  |  |  |  |
| COc1cc(C(=O)O)ccc1O [vanillic acid] | ▪ | ▪ | glucosylate |  |  |  |  |
| COc1cc(C=O)ccc1O [vanillin] | ▪ | ▪ | glucosylate |  |  |  |  |
